Experiment [1] deals with T1, full-length FLAG-KDM5A (Homo sapiens, UniProt P29375).
T1 construct: Sf21 insect cells were infected with baculovirus to express full-length FLAG-KDM5A; made in house; host or cells: Sf21 insect cells (baculovirus)
Put plainly: AlphaScreen KDM5A demethylation assay (bio-H3K4me3 peptide). The experiment is classed as biochemical. The following applies: for hit in KDM5A inhibitor screen: compounds at 20 μM, hit threshold ~30% inhibition. The method, then:
(§1) Histone demethylase assays were performed using previously described methods (Sayegh et al., 2013, J. Biol. Chem. 9408-9417), with the exception of all enzyme reactions containing 125 μM α-KG. Enzymes were used at the following approximate concentrations in validation experiments, chosen based on their activity in AlphaScreen assays: 19 nM FLAG-KDM5A, 15 nM FLAG-KDM5B, 6 nM FLAG-KDM5C, 29 nM His-FLAG-KDM6A, and 16 nM FLAG-KDM6B. 24 nM FLAG-KDM5A was used for Km determination experiments. Reactions were carried out for 1 hour, or were stopped by addition of 30 mM EDTA every 5 minutes for determining enzyme kinetics. Km values were calculated using the Michaelis-Menten non-linear regression analysis on GraphPad Prism 6.0 software. The concentration of DMSO in demethylation reactions was 0.05%. For reactions with catalase, catalase (Sigma C30) or an equal volume of dilution buffer was added to the peptide-containing buffer before addition of the demethylase. The final concentration of catalase in the reactions was 0.01 mg/ml.
(§2) The AlphaScreen general IgG (protein A) detection kit from PerkinElmer Life Sciences was used as described previously (Sayegh et al., 2013, J. Biol. Chem. 9408-9417). The luminescence emission was recorded at 570 nm using the AlphaScreen optic module on a Pherastar (BMG Labtech) or Envision (PerkinElmer Life Sciences) microplate reader.
8,861 compounds from the ChemBridge MW-Set, ChemBridge DIVERSet, MicroSource Gen-Plus, MicroSource Pure Natural Products, NIH Clinical Collection, and Enzo Epigenetics libraries were screened for inhibition of FLAG-KDM5A demethylase activity. Compounds were dissolved in DMSO and added at 20 μM to 384-well white plates (Corning 3574) containing 64 nM bio-H3K4me3 peptide in demethylase buffer prior to addition of 13 nM FLAG-KDM5A. Hits were selected at a threshold of three standard deviations (˜30% inhibition). A counter-screen was performed with the hits to eliminate any non-specific compounds. For this, 20 μM compounds were added to 64 nM bio-H3K4me2 peptide in demethylase buffer with no enzyme. Any hits that interfered with the positive signal detection were eliminated. Dose-response curves were performed on selected hits using 0.1-11 μM of compound. Further validation of top hits was performed using 5 μM of each compound or a dose-response curve using 0.05-50 μM of the compound.
Fresh compounds were ordered to confirm identity. IC50 curves were generated for YUKA1 and YUKA2 using 0.05-50 μM compound in 1 hour reactions. IC50 values were calculated by log transformation and non-linear regression log (inhibitor) versus response (three parameters) using Graphpad Prism 6.0 software. Percent activity of KDM5A was calculated for each data point by subtracting the background (average H3K4me3 signal) and dividing by the average signal for the DMSO controls. α-KG competition tests were performed using 150 nM H3K4me3 peptide and 50 μM Fe(II).
AlphaScreen technology (Perkin Elmer) was utilized to perform a screen for small molecule inhibitors of KDM5A. The assay was comprised of two steps, a demethylation reaction followed by detection of the product. A biotinylated H3K4me3 peptide was used as substrate in the demethylation reaction with KDM5A in the presence or absence of small molecule inhibitors. The presence of peptide product (H3K4me1/2) was detected using a product-specific antibody and beads. For this, acceptor beads coated in protein A bound to the antibody, which recognized the peptide product. Donor beads coated in streptavidin bound biotin on the peptide substrate. […]

The test system of experiment [2] is H3K4 methylation in HeLa cells. The experiment is described as follows: Western blot of global H3K4 methylation, HeLa. The experiment is classed as cell-based, human. The following applies: HeLa and MCF7 cell lines, western blot. How it is done:
Sf21 insect cells were cultured at 27° C. in Grace's medium (Gibco) with 10% fetal bovine serum (FBS) and 1% penicillin/streptomycin. HeLa cells were cultured in DMEM (Gibco) with 10% FBS and 1% penicillin/streptomycin. BT474, MCF7, MDA-MB-231, PC9 and ZR-75-1 cells were cultured in RPMI 1640 (Gibco) with 10% FBS and 1% penicillin/streptomycin. MCF10A cells were cultured as using previously described methods (Sayegh et al., 2013, J. Biol. Chem. 9408-9417). All human cells were cultured at 37° C. and 5% carbon dioxide. HeLa and MCF7 cell lines were authenticated using short tandem repeat profiling performed at the DNA Analysis Facility on Science Hill at Yale University. All other human cell lines used were within 10 passages after being obtained from the American Type Culture Collection.
Cells were lysed using previously described methods (Lin et al., 2011, Proc. Natl. Acad. Sci. U.S.A. 108:13379-13386). Histones were separated by centrifugation, resuspended in Laemmeli buffer, and sonicated. Protein concentration of cell lysates was measured by Bradford assay. Samples in Laemmeli buffer were boiled 10 minutes at 95° C. and loaded onto 7% (whole cell lysates) or 18% (histones) SDS-PAGE gels. Membranes were blocked in 4% non-fat milk in Tris-buffered saline with 0.05% Tween (TBS-T) and incubated with primary antibodies in the same buffer or 5% bovine serum albumin in TBS-T overnight at 4° C. Membranes were incubated with secondary anti-rabbit or anti-mouse antibodies for one hour at room temperature. Blots were visualized by Thermo Scientific Pierce ECL Western Blotting Substrate (32106) or EMD Millipore Immobilon Western Chemiluminescent HRP Substrate (WBKLS0100) on film. Signal was quantified using ImageJ software.

Experiment [3] addresses T2, KDM5C (Homo sapiens, UniProt P41229).
T2 construct: FLAG; made in house
Put plainly: AlphaScreen KDM5C demethylation assay. The experiment is classed as biochemical. The method, then:
as §1, §2

[4] abbreviates: inhibitors found by high throughput screening, read-out: KDM5A IC50.

Like-named read-outs stand apart in the source and are kept apart here.

Consider 12 compounds from US20190151289A1, “Identification of Small Molecule Inhibitors of Jumonji AT-Rich Interactive Domain 1A (JARID1A) Histone Demethylase” (YALE UNIVERSITY, priority 2016, published 2019).

T1 sequence (P29375 whole entry): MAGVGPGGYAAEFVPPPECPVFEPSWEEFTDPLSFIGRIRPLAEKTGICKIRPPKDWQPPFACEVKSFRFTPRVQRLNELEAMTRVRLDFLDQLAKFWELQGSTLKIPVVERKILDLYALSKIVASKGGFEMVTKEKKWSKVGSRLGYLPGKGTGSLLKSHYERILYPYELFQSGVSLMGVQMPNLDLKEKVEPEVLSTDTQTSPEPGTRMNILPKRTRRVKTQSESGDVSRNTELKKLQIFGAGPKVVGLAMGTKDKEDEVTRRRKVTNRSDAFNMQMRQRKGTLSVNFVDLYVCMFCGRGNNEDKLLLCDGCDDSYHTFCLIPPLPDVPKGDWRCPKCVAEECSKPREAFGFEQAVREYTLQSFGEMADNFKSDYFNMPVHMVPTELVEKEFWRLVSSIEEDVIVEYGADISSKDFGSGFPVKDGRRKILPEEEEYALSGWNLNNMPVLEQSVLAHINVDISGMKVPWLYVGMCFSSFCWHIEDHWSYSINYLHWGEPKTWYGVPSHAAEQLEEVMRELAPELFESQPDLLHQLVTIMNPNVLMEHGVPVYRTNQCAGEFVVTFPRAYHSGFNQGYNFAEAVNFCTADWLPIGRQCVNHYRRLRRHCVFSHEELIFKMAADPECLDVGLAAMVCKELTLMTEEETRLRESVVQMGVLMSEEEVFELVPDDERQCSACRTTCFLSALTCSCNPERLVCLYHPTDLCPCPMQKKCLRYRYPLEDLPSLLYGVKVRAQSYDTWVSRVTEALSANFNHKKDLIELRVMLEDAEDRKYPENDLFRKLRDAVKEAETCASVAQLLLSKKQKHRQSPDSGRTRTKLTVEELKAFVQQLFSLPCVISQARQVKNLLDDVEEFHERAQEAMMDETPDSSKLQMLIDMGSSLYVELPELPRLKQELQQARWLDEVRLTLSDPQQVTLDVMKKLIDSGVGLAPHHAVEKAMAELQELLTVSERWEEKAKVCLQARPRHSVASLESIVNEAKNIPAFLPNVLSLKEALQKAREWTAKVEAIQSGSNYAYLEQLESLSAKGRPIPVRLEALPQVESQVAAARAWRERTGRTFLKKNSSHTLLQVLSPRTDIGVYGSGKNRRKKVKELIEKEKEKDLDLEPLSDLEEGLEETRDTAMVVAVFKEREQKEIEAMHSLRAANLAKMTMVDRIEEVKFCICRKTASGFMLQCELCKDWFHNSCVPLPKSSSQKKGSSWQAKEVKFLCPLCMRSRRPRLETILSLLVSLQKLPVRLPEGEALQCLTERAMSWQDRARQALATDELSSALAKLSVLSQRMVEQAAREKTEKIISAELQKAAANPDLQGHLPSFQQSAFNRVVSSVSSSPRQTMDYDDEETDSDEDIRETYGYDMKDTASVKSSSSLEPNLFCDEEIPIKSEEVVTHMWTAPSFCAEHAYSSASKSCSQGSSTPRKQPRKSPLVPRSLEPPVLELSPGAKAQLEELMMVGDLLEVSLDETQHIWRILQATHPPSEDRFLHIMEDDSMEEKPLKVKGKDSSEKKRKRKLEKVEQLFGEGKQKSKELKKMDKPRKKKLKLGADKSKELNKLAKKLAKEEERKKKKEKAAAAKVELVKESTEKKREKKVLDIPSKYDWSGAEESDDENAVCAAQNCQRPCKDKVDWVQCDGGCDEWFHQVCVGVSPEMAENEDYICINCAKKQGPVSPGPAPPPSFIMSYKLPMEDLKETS
T2 sequence (P41229 whole entry): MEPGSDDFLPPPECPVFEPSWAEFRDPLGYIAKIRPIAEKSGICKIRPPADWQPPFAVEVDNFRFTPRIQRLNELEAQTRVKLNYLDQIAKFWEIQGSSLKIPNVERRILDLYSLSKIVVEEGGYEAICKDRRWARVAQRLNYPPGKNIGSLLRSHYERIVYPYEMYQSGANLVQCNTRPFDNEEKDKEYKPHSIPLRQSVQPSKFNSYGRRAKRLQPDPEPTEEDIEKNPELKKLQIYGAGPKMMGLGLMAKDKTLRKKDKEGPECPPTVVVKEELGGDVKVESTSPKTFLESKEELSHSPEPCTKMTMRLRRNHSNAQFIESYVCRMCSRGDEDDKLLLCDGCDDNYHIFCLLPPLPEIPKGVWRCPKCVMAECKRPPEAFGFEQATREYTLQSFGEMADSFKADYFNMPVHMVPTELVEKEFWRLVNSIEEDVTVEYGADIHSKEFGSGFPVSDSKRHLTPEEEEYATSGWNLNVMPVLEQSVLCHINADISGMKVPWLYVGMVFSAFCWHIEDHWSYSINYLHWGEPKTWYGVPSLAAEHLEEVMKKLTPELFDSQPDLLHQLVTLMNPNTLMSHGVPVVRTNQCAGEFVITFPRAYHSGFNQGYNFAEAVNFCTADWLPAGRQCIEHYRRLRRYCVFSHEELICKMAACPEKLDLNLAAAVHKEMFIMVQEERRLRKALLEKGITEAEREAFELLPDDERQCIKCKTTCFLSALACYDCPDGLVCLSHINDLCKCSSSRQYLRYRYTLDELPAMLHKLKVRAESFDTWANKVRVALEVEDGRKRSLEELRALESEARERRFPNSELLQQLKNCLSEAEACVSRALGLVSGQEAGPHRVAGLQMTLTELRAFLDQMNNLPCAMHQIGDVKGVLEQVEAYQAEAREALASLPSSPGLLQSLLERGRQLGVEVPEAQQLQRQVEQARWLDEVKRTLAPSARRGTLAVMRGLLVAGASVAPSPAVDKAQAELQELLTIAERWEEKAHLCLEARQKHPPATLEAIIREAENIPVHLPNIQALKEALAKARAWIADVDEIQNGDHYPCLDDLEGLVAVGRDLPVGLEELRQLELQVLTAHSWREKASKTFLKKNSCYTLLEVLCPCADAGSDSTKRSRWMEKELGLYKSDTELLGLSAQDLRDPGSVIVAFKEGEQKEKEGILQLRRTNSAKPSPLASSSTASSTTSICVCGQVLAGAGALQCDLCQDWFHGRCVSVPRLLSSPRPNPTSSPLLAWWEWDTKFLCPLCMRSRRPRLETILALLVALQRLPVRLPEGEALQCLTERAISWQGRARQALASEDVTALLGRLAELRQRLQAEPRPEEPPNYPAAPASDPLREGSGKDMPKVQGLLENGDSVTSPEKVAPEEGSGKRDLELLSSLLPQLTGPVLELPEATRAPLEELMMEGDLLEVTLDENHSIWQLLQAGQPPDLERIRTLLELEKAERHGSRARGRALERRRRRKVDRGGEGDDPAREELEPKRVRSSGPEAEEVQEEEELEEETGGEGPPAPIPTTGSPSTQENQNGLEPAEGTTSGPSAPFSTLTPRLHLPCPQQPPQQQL

Consider `Cc1cccc(-n2c(C)nnc2S)c1` [YU128402, 5-methyl-4-(m-tolyl)-4H-1,2,4-triazole-3-thiol], for which the IC50 in experiment [1] (setting [4]) worked out at 79 nM.

Regarding `COc1cccc(Cc2nnc(S)n2Cc2ccco2)c1` [YU017176, 4-(furan-2-ylmethyl)-5-(3-methoxybenzyl)-4H-1,2,4-triazole-3-thiol], the IC50 in experiment [1] (setting [4]) came to 1760 nM.

Take `O=C(O)c1ccnc(C(=O)O)c1` [2,4-PDCA, 2,4-pyridinedicarboxylic acid, reference compound]: the “hit in KDM5A inhibitor screen” value in experiment [1] is reported as “among the active hits in the screen”.

For `C[C@@](Cc1ccc(O)c(O)c1)(NN)C(=O)O` [carbidopa, reference compound], in experiment [1], the “hit in KDM5A inhibitor screen” value is given as “among the active hits in the screen”.

With `Cc1ccc(-n2sc3ccccc3c2=O)cc1` [PBIT, 2-4(4-methylphenyl)-1,2-benzisothiazol-3(2H)-one, reference compound], the “hit in KDM5A inhibitor screen” value in experiment [1] was “among the active hits in the screen”.

On to `N[C@@H](Cc1ccc(O)c(O)c1)C(=O)O` [levodopa, reference compound], for which the “hit in KDM5A inhibitor screen” value in experiment [1] is given as “among the active hits in the screen”.

On to `CCn1c(S)nnc1CNC(=O)c1cccc(C)c1` [YU126648, N-((4-ethyl-5-mercapto-4H-1,2,4-triazol-3-yl)methyl)-3-methylbenzamide], for which the IC50 in experiment [1] (setting [4]) came to 159 nM.

`O=C(O)/C=C/c1ccc(O)c(O)c1` [caffeic acid, reference compound]: in experiment [1], the “hit in KDM5A inhibitor screen” value is recorded as “among the active hits in the screen”.

In the case of `CCCCSCCc1nnc(S)n1-c1ccccc1` [YU149596, 5-(2-(butylthio)ethyl)-4-phenyl-4H-1,2,4-triazole-3-thiol], the IC50 in experiment [1] (setting [4]) came to 169 nM.

`COc1cccc(Cc2nnc(S)n2-c2ccc(Cl)cc2)c1` [YU017175, 4-(4-chlorophenyl)-5-(3-methoxybenzyl)-4H-1,2,4-triazole-3-thiol]: in experiment [1] (setting [4]), the half-inhibitory concentration (IC50) stood at 57 nM.

Consider `C=CCn1c(S)nnc1CNC(=O)c1cccc(C)c1` [YUKA2, N-[(4-allyl-5-mercapto-4H-1,2,4-triazol-3-yl)methyl]-3-methylbenzamide], for which the “cell activity by global H3K4 methylation changes” value in experiment [2] is “but not YUKA2, was cell-active”. The “mode of KDM5A inhibition with respect to Fe(II)” value in experiment [1] was “uncompetitive with respect to Fe(II)”. The “KDM5A enzyme inhibition at low Fe(II)” value in experiment [1] (5 μM Fe(II)) is “too weak to generate robust IC50 curves”. Also, the “effect of catalase on inhibitory potency against KDM5A” value in experiment [1] (0.01 mg/ml catalase) is recorded as “did not affect the inhibitory potency”. Also, the IC50 in experiment [1] (0.05-50 μM compound, 1 hour reactions, read-out: average in vitro IC50 against KDM5A) worked out at 1320 nM; in experiment [1] (setting [4]) it was 2660 nM. In addition, in experiment [1] (16-fold range of α-KG, 150 nM H3K4me3 peptide, 50 μM Fe(II)), the “change of KDM5A IC50 with α-KG concentration” value is “did not change significantly”. Further, the “fold less active against KDM5C (vs KDM5A)” value in experiment [3] is given as approximately 5 fold.

On to `C=CCn1c(S)nnc1-c1cccnc1` [YU125526, 4-allyl-5-(pyridin-3-yl)-4H-1,2,4-triazole-3-thiol], for which the IC50 in experiment [1] (setting [4]) was found to be 197 nM.
